system: mutant HTT protein (mHTT); assay: Homogeneous Time Resolved Fluorescence (HTRF) assay for HTT lowering; format: cell-based; settings: reduction of mHTT in Huntington patient human cells (GENEAe020-A cell line), 48 hours incubation, mean from three replicates
Method: Homogeneous Time Resolved Fluorescence for HTT lowering
The HTRF assay was adapted from Weiss et al. (Analytical Biochemistry Volume 395, Issue 1, 1 Dec. 2009, Pages 8-15 and Analytical Biochemistry Volume 410, 2011, Pages 304-306) to cells from GENEAe020-A cell line (https://hpscreg.eu/cell-line/GENEAe020-A).
Compounds were tested for the effect of mutant HTT levels in Huntington patient human cells (GENEAe020-A cell line) using Homogeneous Time Resolved Fluorescence (HTRF) directed towards mutant HTT protein (mHTT). The GENEAe020-A cell line was derived by Genea Biocells from human blastocysts of HD donors. After assessing viability, cells were plated into 384 well collagen coated plates in growth media. Once cells adhered, media was removed and test compounds dissolved in DMSO were diluted with buffer solution and added to the adherent cells. Controls included experiments with no cells, DMSO with no compound, and Hsp90 inhibitor control. Cells were incubated with compounds and controls for 48 hours. Then, the cells were lysed and transferred to an assay plate containing HTRF labeled monoclonal antibodies developed by Paul Patterson (Ko et al., Brain Research Bulletin, Volume 56, Numbers 3 and 4, 2001, Pages 319-329) which recognize specific areas of the HTT protein. The terbium labeled “donor” antibody (2B7) binds to the N-terminus of the HTT protein and the Alexa488 labeled “acceptor” antibody (MW1) is specific for the polyglutamine region of the protein. Binding of the acceptor labeled antibody is more efficient for the extended polyglutamine repeats of mutant HTT protein which translates into a signal boost which enables the specific measurement of mutant HTT protein level. The HTRF donor and acceptor detection reagents were incubated with the cell lysate and the ratio between the signals of the two fluorophores is indicative of the relative quantities of mHTT.

| Structure (SMILES) | EC50 [nM] |
| --- | --- |
| Cc1cn2nc(-c3cc(=O)n4cc([C@@H]5CCNC6(CC6)C5)sc4n3)cc(C)c2n1 [Example 37, 7-(2,8-dimethylimidazo[1,2-b]pyridazin-6-yl)-2-[(7R)-4-azaspiro[2.5]octan-7-yl]thiazolo[3,2-a]pyrimidin-5-one] | 112 |
| Cc1cn2nc(-c3cc(=O)n4cc(N5CCNCC5)sc4n3)cc(OC(F)F)c2n1 [Example 27, 7-[8-(difluoromethoxy)-2-methyl-imidazo[1,2-b]pyridazin-6-yl]-2-piperazin-1-yl-thiazolo[3,2-a]pyrimidin-5-one] | 68 |
| Cc1cn2nc(-c3cc(=O)n4cc(N5CCNC6(CC6)C5)sc4n3)cc(C)c2n1 [Example 4, 2-(4,7-diazaspiro[2.5]octan-7-yl)-7-(2,8-dimethylimidazo[1,2-b]pyridazin-6-yl)thiazolo[3,2-a]pyrimidin-5-one] | 3530 |
| COc1cc(-c2cc(=O)n3cc([C@@H]4CCNC[C@@H]4F)sc3n2)nn2cc(C)nc12 [Example 34, 7-(8-methoxy-2-methyl-imidazo[1,2-b]pyridazin-6-yl)-2-[(3R,4R)-3-fluoro-4-piperidyl]thiazolo[3,2-a]pyrimidin-5-one] | 22 |
| COc1cc(-c2cc(=O)n3cc(C4CCNCC4)sc3n2)nn2cc(C)nc12 [Example 29, 7-(8-methoxy-2-methyl-imidazo[1,2-b]pyridazin-6-yl)-2-(4-piperidyl)thiazolo[3,2-a]pyrimidin-5-one] | 35 |
| CCc1cc(-c2cc(=O)n3cc(N4CCNCC4)sc3n2)nn2cc(C)nc12 [Example 12, 7-(8-ethyl-2-methyl-imidazo[1,2-b]pyridazin-6-yl)-2-piperazin-1-yl-thiazolo[3,2-a]pyrimidin-5-one] | 104 |
| Cc1cn2nc(-c3cc(=O)n4cc(C5=CCNCC5)sc4n3)cc(C)c2n1 [Example 2, 7-(2,8-dimethylimidazo[1,2-b]pyridazin-6-yl)-2-(1,2,3,6-tetrahydropyridin-4-yl)thiazolo[3,2-a]pyrimidin-5-one] | 54 |
| Cc1cc(-c2cc(=O)n3cc(C4CCNCC4)sc3n2)nn2cc(Cl)nc12 [Example 31, 7-(2-chloro-8-methyl-imidazo[1,2-b]pyridazin-6-yl)-2-(4-piperidyl)thiazolo[3,2-a]pyrimidin-5-one] | 71 |
| Cc1cn2nc(-c3cc(=O)n4cc(N5CC[C@H](N6CCCC6)C5)sc4n3)cc(C)c2n1 [Example 21, 7-(2,8-dimethylimidazo[1,2-b]pyridazin-6-yl)-2-[(3S)-3-pyrrolidin-1-ylpyrrolidin-1-yl]thiazolo[3,2-a]pyrimidin-5-one] | 4200 |
| Cc1cn2nc(-c3cc(=O)n4cc(N5CCNCC5)sc4n3)cc(C(C)C)c2n1 [Example 23, 7-(8-isopropyl-2-methyl-imidazo[1,2-b]pyridazin-6-yl)-2-piperazin-1-yl-thiazolo[3,2-a]pyrimidin-5-one] | 671 |
| COc1cc(-c2cc(=O)n3cc([C@]4(F)CCNC[C@H]4F)sc3n2)nn2cc(C)nc12 [Example 56, 7-(8-methoxy-2-methyl-imidazo[1,2-b]pyridazin-6-yl)-2-[(3R,4S)-3,4-difluoro-4-piperidyl]thiazolo[3,2-a]pyrimidin-5-one] | 50 |
| COc1cc(-c2cc(=O)n3cc([C@]4(F)CCNC[C@H]4F)sc3n2)nn2cc(C)nc12 (racemic) [Example 51, 7-(8-methoxy-2-methyl-imidazo[1,2-b]pyridazin-6-yl)-2-[rac-(3R,4S)-3,4-difluoro-4-piperidyl]thiazolo[3,2-a]pyrimidin-5-one] | 102 |
| Cc1cn2nc(-c3cc(=O)n4cc(N5CC(C)NC(C)C5)sc4n3)cc(C)c2n1 (stereo not drawn) [Example 8, 7-(2,8-dimethylimidazo[1,2-b]pyridazin-6-yl)-2-(3,5-dimethylpiperazin-1-yl)thiazolo[3,2-a]pyrimidin-5-one] | 386 |
| Cc1cn2nc(-c3cc(=O)n4cc(N5CCN6CCC[C@@H]6C5)sc4n3)cc(C(F)(F)F)c2n1 [Example 25, 7-[2-methyl-8-(trifluoromethyl)imidazo[1,2-b]pyridazin-6-yl]-2-[(8aR)-3,4,6,7,8,8a-hexahydro-1H-pyrrolo[1,2-a]pyrazin-2-yl]thiazolo[3,2-a]pyrimidin-5-one] | 454 |
| COc1cc(-c2cc(=O)n3cc([C@H]4C[C@H]5CNC[C@@H](C4)O5)sc3n2)nn2cc(C)nc12 [Example 49, 7-(8-methoxy-2-methyl-imidazo[1,2-b]pyridazin-6-yl)-2-[rac-(1R,5S)-9-oxa-3-azabicyclo[3.3.1]nonan-7-yl]thiazolo[3,2-a]pyrimidin-5-one] | 200 |
| COc1cc(-c2cc(=O)n3cc([C@@H]4CCNC[C@H]4F)sc3n2)nn2cc(C)nc12 [Example 45, 7-(8-methoxy-2-methyl-imidazo[1,2-b]pyridazin-6-yl)-2-[(3S,4R)-3-fluoro-4-piperidyl]thiazolo[3,2-a]pyrimidin-5-one] | 97 |
| Cc1cn2nc(-c3cc(=O)n4cc([C@H]5CCNC[C@H]5F)sc4n3)cc(C)c2n1 [Example 33, 7-(2,8-dimethylimidazo[1,2-b]pyridazin-6-yl)-2-[(3S,4S)-3-fluoro-4-piperidyl]thiazolo[3,2-a]pyrimidin-5-one] | 86 |
| Cc1nc2c(C)cc(-c3cc(=O)n4cc(N5CCNCC5)sc4n3)nc2o1 [Example 20, 7-(2,7-dimethyloxazolo[5,4-b]pyridin-5-yl)-2-piperazin-1-yl-thiazolo[3,2-a]pyrimidin-5-one] | 136 |
| Cc1cn2nc(-c3cc(=O)n4cc(C5(F)CCNCC5)sc4n3)cc(C)c2n1 [Example 26, 7-(2,8-dimethylimidazo[1,2-b]pyridazin-6-yl)-2-(4-fluoro-4-piperidyl)thiazolo[3,2-a]pyrimidin-5-one] | 128 |
| Cc1nc2c(F)cc(-c3cc(=O)n4cc(N5CCNCC5)sc4n3)cc2o1 [Example 5, 7-(4-fluoro-2-methyl-1,3-benzoxazol-6-yl)-2-piperazin-1-yl-thiazolo[3,2-a]pyrimidin-5-one] | 499 |
| COc1cc(-c2cc(=O)n3cc([C@]4(F)CCNC[C@@H]4F)sc3n2)nn2cc(C)nc12 [Example 57, 7-(8-methoxy-2-methyl-imidazo[1,2-b]pyridazin-6-yl)-2-[(3S,4S)-3,4-difluoro-4-piperidyl]thiazolo[3,2-a]pyrimidin-5-one] | 239 |
| Cc1cn2nc(-c3cc(=O)n4cc(N5CCN6CCC[C@@H]6C5)sc4n3)cc(C)c2n1 [Example 15, 7-(2,8-dimethylimidazo[1,2-b]pyridazin-6-yl)-2-[(8aR)-3,4,6,7,8,8a-hexahydro-1H-pyrrolo[1,2-a]pyrazin-2-yl]thiazolo[3,2-a]pyrimidin-5-one] | 123 |
| Cc1cn2nc(-c3cc(=O)n4cc(N5CCNCC5)sc4n3)cc(C3CC3)c2n1 [Example 18, 7-(8-cyclopropyl-2-methyl-imidazo[1,2-b]pyridazin-6-yl)-2-piperazin-1-yl-thiazolo[3,2-a]pyrimidin-5-one] | 469 |
| Cc1nc2c(C)cc(-c3cc(=O)n4cc(C5CCNCC5)sc4n3)nc2o1 [Example 30, 7-(2,7-dimethyloxazolo[5,4-b]pyridin-5-yl)-2-(4-piperidyl)thiazolo[3,2-a]pyrimidin-5-one] | 40 |
| COc1cc(-c2cc(=O)n3cc([C@@H]4CCNC5(CC5)C4)sc3n2)nn2cc(C)nc12 [Example 41, 7-(8-methoxy-2-methyl-imidazo[1,2-b]pyridazin-6-yl)-2-[(7R)-4-azaspiro[2.5]octan-7-yl]thiazolo[3,2-a]pyrimidin-5-one] | 106 |
| Cc1cn2nc(-c3cc(=O)n4cc(N5CC6CNCC6C5)sc4n3)cc(C)c2n1 (stereo not drawn) [Example 17, 2-(2,3,3a,4,6,6a-hexahydro-1H-pyrrolo[3,4-c]pyrrol-5-yl)-7-(2,8-dimethylimidazo[1,2-b]pyridazin-6-yl)thiazolo[3,2-a]pyrimidin-5-one] | 421 |
| Cc1cn2nc(-c3cc(=O)n4cc(N5CCC6(CCNCC6)C5)sc4n3)cc(C)c2n1 [Example 22, 2-(2,8-diazaspiro[4.5]decan-2-yl)-7-(2,8-dimethylimidazo[1,2-b]pyridazin-6-yl)thiazolo[3,2-a]pyrimidin-5-one] | 1320 |
| COc1cc(-c2cc(=O)n3cc([C@@]4(F)CCNC[C@H]4F)sc3n2)nn2cc(C)nc12 [Example 58, 7-(8-methoxy-2-methyl-imidazo[1,2-b]pyridazin-6-yl)-2-[(3R,4R)-3,4-difluoro-4-piperidyl]thiazolo[3,2-a]pyrimidin-5-one] | 99 |
| Cc1cn2nc(-c3cc(=O)n4cc(N5CCNCC5)sc4n3)cc(C)c2n1 [Example 1, 7-(2,8-dimethylimidazo[1,2-b]pyridazin-6-yl)-2-piperazin-1-yl-thiazolo[3,2-a]pyrimidin-5-one] | 46 |
| COc1cc(-c2cc(=O)n3cc([C@H]4CCNC[C@@H]4F)sc3n2)nn2cc(C)nc12 [Example 46, 7-(8-methoxy-2-methyl-imidazo[1,2-b]pyridazin-6-yl)-2-[(3R,4S)-3-fluoro-4-piperidyl]thiazolo[3,2-a]pyrimidin-5-one] | 69 |

Reference: US20240018163A1, “NEW THIAZOLOPYRIMIDINONE DERIVATIVES” (Hoffmann-La Roche Inc., priority 2021, published 2024)
